Source: patent US20080003311A1, “Rosmarinus extracts for inhibiting/treating skin aging” (SOCIETE L'OREAL, S.A., priority 1999, published 2008)

Test system: normal human dermal fibroblasts
Experiment: Incorporation of radioactive proline (collagen synthesis) into cultures of normal human dermal fibroblasts
Assay type: cell-based
Description: The study was conducted by measuring the incorporation of radioactive proline into cultures of normal human dermal fibroblasts. The fibroblast cultures were prepared according to conventional cell culture methods, i.e., in MEM/M199 medium marketed by Gibco in the presence of sodium bicarbonate (1.87 mg/ml), of L-glutamine (2 mM), of penicillin (50 IU/ml) and of 10% of fetal calf serum (Gibco). The assay was carried out on cell cultures at 80% confluency, in a 24-well plate. […] The labeling with tritiated proline (L-[2,3-^3H]-proline sold by Amersham, 33 (μCi/ml) was carried out for 24 hours. The level of tritiated proline incorporated was measured at the end of the assay by acid precipitation of the proteins on filters and liquid scintillation counting. […] A positive control (vitamin C at 20 (g/ml) known to stimulate collagen synthesis was introduced into the assay as a reference. The results of this assay, expressed as percentages of activation, are reported in the following Table I: […]

Compound: O=C1O[C@H]([C@@H](O)CO)C(O)=C1O [Vitamin C]
- cpm (tritiated proline incorporated) (vitamin C at 20 (g/ml, positive control), untreated cells 7498 cpm): 13091 cpm
- percentage of activation of proline incorporation (vitamin C at 20 (g/ml, versus untreated cells)): 75%
